Experimental data from ChEMBL document CHEMBL3991601, “The target landscape of clinical kinase drugs” (Science, 2017).
Active and inactive are the calls of the source. Cut-off read from the data, not from the text of the source, for most assays here: actives have a measured Kd and inactives only a lower limit.

Tests used:
[1] = target: AP2-associated protein kinase 1 (Homo sapiens, UniProt Q2M2I8)
[2] = target: BMP-2-inducible protein kinase (Homo sapiens, UniProt Q9NSY1)
[3] = target: Cyclin-dependent kinase 12 (Homo sapiens, UniProt Q9NYV4)
Chain of Cyclin-dependent kinase 12 (Q9NYV4 whole entry): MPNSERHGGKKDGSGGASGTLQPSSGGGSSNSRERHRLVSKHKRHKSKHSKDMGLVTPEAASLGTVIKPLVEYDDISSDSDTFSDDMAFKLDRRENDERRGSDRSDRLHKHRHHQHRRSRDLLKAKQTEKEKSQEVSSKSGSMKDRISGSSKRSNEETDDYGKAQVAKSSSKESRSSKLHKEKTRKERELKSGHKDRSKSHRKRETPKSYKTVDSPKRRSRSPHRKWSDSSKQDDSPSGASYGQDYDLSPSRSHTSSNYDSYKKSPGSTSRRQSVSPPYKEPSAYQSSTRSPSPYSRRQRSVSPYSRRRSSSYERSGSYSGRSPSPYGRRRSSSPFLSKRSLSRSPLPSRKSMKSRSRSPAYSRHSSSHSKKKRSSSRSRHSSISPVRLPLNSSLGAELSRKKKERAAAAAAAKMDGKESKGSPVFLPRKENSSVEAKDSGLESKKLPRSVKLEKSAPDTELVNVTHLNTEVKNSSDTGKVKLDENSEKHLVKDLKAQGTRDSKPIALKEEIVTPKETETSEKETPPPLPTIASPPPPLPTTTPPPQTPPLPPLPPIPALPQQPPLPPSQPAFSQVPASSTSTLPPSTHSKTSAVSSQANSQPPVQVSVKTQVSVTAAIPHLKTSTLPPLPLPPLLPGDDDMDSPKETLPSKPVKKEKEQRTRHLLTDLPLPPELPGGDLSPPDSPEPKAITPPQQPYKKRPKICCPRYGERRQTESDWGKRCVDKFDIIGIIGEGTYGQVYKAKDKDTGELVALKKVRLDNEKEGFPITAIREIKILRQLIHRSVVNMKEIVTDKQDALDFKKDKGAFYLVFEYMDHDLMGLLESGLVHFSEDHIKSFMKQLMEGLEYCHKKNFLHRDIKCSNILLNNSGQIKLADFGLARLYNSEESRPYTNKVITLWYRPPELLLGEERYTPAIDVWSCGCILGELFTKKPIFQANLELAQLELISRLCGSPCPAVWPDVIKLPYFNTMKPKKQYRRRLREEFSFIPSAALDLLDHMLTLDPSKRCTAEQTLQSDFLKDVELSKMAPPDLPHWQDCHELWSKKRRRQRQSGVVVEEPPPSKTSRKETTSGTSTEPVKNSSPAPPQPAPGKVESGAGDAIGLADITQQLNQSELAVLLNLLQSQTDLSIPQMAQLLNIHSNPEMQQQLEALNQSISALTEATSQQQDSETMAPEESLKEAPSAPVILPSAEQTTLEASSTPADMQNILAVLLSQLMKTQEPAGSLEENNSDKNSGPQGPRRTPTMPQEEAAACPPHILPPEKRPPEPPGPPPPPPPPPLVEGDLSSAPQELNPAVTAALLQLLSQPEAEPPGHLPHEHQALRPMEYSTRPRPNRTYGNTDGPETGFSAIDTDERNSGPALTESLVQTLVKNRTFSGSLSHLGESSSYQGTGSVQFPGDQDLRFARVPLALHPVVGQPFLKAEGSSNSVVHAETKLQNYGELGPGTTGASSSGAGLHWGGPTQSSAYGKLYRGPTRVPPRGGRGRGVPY

[4] = target: Cyclin-dependent kinase 3 (Homo sapiens, UniProt Q00526)
[5] = target: Citron Rho-interacting kinase (Homo sapiens, UniProt O14578)
Deoxycytidine kinase = Deoxycytidine kinase (Homo sapiens, UniProt P27707)
Chain of Deoxycytidine kinase (P27707 whole entry): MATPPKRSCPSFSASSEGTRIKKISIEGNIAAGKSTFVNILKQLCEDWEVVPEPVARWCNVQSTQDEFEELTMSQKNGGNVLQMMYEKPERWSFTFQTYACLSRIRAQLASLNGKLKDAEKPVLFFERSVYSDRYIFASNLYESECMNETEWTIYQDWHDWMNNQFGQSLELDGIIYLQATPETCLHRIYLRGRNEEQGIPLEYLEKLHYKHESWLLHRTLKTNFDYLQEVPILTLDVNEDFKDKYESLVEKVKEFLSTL

[6] = target: DnaJ homolog subfamily A member 1 (Homo sapiens, UniProt P31689)
Ephrin type-A receptor 2 = Ephrin type-A receptor 2 (Homo sapiens, UniProt P29317)
Chain of Ephrin type-A receptor 2 (P29317 whole entry): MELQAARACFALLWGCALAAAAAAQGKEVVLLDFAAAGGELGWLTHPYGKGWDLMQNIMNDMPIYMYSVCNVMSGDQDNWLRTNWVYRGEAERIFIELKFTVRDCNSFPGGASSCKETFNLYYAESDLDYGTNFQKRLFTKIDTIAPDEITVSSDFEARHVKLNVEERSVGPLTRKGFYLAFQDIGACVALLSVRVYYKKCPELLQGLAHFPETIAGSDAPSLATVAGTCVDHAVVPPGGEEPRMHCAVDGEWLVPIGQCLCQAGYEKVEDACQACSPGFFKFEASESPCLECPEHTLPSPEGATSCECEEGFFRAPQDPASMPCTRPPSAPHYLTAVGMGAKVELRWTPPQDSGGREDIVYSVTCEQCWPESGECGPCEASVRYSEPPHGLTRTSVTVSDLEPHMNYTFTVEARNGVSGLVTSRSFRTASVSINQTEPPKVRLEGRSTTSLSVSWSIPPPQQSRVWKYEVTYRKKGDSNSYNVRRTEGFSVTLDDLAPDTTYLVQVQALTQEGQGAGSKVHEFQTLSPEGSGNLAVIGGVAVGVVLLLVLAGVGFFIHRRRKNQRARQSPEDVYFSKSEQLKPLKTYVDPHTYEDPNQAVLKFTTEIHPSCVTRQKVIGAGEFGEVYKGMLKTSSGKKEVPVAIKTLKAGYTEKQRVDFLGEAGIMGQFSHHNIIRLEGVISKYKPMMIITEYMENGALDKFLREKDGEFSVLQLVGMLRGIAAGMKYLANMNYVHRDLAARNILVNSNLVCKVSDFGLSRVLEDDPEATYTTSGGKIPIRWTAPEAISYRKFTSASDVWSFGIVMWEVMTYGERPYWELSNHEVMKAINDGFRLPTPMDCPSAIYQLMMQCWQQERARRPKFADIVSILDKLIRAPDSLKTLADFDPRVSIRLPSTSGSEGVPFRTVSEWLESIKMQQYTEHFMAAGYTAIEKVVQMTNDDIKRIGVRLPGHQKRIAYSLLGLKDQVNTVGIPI

[7] = target: T1, Dual specificity mitogen-activated protein kinase kinase 6 (Homo sapiens, UniProt P52564)
T1 sequence (P52564 whole entry): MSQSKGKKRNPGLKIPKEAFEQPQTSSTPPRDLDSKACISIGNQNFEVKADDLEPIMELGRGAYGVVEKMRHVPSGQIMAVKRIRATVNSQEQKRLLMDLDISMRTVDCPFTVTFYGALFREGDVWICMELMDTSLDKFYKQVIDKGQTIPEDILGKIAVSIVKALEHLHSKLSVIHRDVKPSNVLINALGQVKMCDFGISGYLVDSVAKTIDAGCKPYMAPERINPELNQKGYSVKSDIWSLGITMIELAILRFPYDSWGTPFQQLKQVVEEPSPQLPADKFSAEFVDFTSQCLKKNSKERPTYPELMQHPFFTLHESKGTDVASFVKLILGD

[8] = target: NADH dehydrogenase [ubiquinone] 1 alpha subcomplex subunit 13 (Homo sapiens, UniProt Q9P0J0)
Chain of NADH dehydrogenase [ubiquinone] 1 alpha subcomplex subunit 13 (Q9P0J0 whole entry, one chain of several): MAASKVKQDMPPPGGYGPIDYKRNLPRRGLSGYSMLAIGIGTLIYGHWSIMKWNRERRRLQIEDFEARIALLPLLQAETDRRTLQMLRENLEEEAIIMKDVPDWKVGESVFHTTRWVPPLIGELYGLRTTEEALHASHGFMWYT

[9] = target: Serine/threonine-protein kinase PAK 2 (Homo sapiens, UniProt Q13177)
[10] = target: T2, Serine/threonine-protein kinase TAO2 (Homo sapiens, UniProt Q9UL54)
T2 sequence (Q9UL54 whole entry): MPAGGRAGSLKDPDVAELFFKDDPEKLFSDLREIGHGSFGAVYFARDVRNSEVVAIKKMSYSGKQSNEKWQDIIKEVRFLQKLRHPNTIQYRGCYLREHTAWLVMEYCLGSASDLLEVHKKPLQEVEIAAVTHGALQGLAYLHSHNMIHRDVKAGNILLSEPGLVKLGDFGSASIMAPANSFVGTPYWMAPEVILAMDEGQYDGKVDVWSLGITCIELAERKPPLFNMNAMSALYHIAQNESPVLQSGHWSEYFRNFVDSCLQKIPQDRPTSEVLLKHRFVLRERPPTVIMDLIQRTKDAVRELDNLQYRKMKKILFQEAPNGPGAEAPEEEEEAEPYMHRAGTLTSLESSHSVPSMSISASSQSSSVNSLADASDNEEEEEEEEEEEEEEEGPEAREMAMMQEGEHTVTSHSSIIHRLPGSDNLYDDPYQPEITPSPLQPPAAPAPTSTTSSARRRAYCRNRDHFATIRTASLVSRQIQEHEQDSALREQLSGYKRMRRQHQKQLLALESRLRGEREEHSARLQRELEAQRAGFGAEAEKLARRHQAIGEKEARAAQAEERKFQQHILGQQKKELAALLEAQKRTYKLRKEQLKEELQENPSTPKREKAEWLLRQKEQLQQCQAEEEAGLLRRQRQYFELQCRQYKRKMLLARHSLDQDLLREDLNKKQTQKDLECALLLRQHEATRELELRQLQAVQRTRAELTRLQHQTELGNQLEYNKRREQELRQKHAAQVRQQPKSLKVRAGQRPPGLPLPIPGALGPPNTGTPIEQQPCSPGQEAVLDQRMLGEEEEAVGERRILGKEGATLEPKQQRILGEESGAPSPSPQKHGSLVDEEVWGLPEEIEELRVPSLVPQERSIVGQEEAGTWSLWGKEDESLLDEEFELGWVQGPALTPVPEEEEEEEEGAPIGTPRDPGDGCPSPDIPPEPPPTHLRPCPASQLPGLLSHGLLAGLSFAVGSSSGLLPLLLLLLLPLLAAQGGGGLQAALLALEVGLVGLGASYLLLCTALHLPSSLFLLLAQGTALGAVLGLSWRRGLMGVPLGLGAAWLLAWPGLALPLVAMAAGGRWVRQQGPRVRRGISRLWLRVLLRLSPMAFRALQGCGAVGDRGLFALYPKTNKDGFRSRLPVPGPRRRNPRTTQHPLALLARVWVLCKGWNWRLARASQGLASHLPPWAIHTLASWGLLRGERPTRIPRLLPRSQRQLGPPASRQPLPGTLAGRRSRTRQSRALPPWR

DNA topoisomerase 2-beta = DNA topoisomerase 2-beta (Homo sapiens, UniProt Q02880)
Chain of DNA topoisomerase 2-beta (Q02880 whole entry): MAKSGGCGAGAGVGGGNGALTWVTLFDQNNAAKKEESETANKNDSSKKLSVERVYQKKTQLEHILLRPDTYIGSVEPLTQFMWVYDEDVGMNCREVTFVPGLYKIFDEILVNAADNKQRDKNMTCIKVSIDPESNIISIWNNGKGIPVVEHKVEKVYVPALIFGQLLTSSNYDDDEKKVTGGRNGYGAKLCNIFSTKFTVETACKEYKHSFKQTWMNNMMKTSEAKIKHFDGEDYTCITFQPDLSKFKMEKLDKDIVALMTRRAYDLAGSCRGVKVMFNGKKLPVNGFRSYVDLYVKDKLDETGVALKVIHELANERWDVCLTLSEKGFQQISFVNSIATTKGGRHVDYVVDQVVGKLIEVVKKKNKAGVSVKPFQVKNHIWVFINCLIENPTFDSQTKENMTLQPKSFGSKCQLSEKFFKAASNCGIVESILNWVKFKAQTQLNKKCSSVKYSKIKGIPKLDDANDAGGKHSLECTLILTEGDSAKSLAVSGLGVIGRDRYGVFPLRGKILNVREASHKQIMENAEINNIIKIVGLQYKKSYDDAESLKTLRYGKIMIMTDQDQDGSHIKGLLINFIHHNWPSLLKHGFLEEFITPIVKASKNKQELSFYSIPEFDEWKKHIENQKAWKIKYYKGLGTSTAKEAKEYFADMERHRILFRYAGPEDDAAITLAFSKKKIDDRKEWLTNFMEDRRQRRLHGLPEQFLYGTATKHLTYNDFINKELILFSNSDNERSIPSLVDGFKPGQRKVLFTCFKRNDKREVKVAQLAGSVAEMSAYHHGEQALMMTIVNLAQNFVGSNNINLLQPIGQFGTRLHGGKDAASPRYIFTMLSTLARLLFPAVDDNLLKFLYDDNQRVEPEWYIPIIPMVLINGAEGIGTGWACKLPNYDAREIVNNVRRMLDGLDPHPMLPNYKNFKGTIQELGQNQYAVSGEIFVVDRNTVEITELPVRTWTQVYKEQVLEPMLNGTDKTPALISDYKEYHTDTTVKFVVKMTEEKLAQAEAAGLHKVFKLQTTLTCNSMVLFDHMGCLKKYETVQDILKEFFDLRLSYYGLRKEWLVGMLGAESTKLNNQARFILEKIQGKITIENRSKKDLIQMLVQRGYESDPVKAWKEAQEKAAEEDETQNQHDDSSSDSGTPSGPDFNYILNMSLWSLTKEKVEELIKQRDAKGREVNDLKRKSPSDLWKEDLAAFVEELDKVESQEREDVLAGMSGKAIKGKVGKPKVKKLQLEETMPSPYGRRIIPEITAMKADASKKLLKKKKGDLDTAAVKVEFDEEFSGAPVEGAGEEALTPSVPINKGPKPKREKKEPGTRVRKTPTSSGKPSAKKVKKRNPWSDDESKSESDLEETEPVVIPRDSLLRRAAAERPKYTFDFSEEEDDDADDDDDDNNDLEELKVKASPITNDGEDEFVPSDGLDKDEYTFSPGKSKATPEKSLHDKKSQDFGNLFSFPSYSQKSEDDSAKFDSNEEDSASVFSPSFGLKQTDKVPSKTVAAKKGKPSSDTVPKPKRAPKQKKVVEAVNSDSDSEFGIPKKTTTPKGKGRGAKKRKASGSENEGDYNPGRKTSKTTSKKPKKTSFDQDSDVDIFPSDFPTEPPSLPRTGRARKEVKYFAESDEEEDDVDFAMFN

[11] = target: Cyclin-dependent kinase 1 (Homo sapiens, UniProt P06493)
Chain of Cyclin-dependent kinase 1 (P06493 whole entry): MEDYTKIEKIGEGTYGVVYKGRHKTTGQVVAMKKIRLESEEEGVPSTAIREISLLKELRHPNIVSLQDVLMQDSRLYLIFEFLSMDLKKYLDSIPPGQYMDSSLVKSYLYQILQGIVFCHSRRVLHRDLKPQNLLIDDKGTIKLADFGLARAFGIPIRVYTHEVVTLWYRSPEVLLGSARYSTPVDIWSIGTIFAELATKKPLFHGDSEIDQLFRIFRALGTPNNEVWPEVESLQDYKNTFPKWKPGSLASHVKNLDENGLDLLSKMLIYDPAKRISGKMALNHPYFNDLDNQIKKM
Note: in the data inactive means no Kd found up to 30 µM.

CN(C)C(=O)c1cc2cnc(Nc3ccc(N4CCNCC4)cn3)nc2n1C1CCCC1 [RIBOCICLIB]
Kd [1]: > 30 µM (inactive) | Kd [2]: > 30 µM (inactive) | Kd [3]: > 30 µM (inactive) | Kd [4]: > 30 µM (inactive) | Kd [5]: > 30 µM (inactive) | Kd (Deoxycytidine kinase): > 30 µM (inactive) | Kd [6]: > 30 µM (inactive) | Kd (Ephrin type-A receptor 2): > 30 µM (inactive) | Kd [7]: > 30 µM (inactive) | Kd [8]: > 30 µM (inactive) | Kd [9]: > 30 µM (inactive) | Kd [10]: > 30 µM (inactive) | Kd (DNA topoisomerase 2-beta): > 30 µM (inactive)

CN1CCC(COc2cnc(-c3cccc(Cn4nc(-c5cccc(C#N)c5)ccc4=O)c3)nc2)CC1 [TEPOTINIB]
Kd [1]: > 30 µM (inactive) | Kd [2]: > 30 µM (inactive) | Kd [11]: > 30 µM (inactive) | Kd [3]: > 30 µM (inactive) | Kd [4]: > 30 µM (inactive) | Kd [5]: > 30 µM (inactive) | Kd (Deoxycytidine kinase): > 30 µM (inactive) | Kd [6]: > 30 µM (inactive) | Kd (Ephrin type-A receptor 2): > 30 µM (inactive) | Kd [7]: > 30 µM (inactive) | Kd [8]: > 30 µM (inactive) | Kd [9]: > 30 µM (inactive) | Kd [10]: > 30 µM (inactive) | Kd (DNA topoisomerase 2-beta): > 30 µM (inactive)

COc1cc(N2CCC(N3CCN(C)CC3)CC2)ccc1Nc1ncnc(Nc2ccccc2S(=O)(=O)C(C)C)n1 [ASP-3026]
Kd [1]: 1.32 µM (active) | Kd [2]: > 30 µM (inactive) | Kd [11]: > 30 µM (inactive) | Kd [3]: > 30 µM (inactive) | Kd [4]: > 30 µM (inactive) | Kd [5]: > 30 µM (inactive) | Kd (Deoxycytidine kinase): > 30 µM (inactive) | Kd [6]: > 30 µM (inactive) | Kd (Ephrin type-A receptor 2): 1.25 µM (active) | Kd [7]: > 30 µM (inactive) | Kd [8]: > 30 µM (inactive) | Kd [10]: > 30 µM (inactive) | Kd (DNA topoisomerase 2-beta): > 30 µM (inactive)

COc1cc(OC)c(/C=C/S(=O)(=O)Cc2ccc(OC)c(NCC(=O)O)c2)c(OC)c1 [RIGOSERTIB]
Kd [1]: > 30 µM (inactive) | Kd [2]: > 30 µM (inactive) | Kd [11]: > 30 µM (inactive) | Kd [3]: > 30 µM (inactive) | Kd [4]: > 30 µM (inactive) | Kd [5]: > 30 µM (inactive) | Kd (Deoxycytidine kinase): > 30 µM (inactive) | Kd [6]: > 30 µM (inactive) | Kd (Ephrin type-A receptor 2): > 30 µM (inactive) | Kd [7]: > 30 µM (inactive) | Kd [8]: > 30 µM (inactive) | Kd [9]: > 30 µM (inactive) | Kd [10]: > 30 µM (inactive) | Kd (DNA topoisomerase 2-beta): > 30 µM (inactive)

C=CC(=O)N1CCC(Oc2cc3c(Nc4ccc(Cl)c(Cl)c4F)ncnc3cc2OC)CC1 [POZIOTINIB]
Kd [1]: > 30 µM (inactive) | Kd [2]: > 30 µM (inactive) | Kd [11]: > 30 µM (inactive) | Kd [3]: > 30 µM (inactive) | Kd [4]: > 30 µM (inactive) | Kd [5]: > 30 µM (inactive) | Kd (Deoxycytidine kinase): > 30 µM (inactive) | Kd [6]: > 30 µM (inactive) | Kd (Ephrin type-A receptor 2): > 30 µM (inactive) | Kd [7]: > 30 µM (inactive) | Kd [9]: > 30 µM (inactive) | Kd [10]: > 30 µM (inactive) | Kd (DNA topoisomerase 2-beta): > 30 µM (inactive)

CC[C@H](Nc1ncnc2[nH]cnc12)c1nc2cccc(F)c2c(=O)n1-c1ccccc1 [IDELALISIB]
Kd [1]: > 30 µM (inactive) | Kd [2]: > 30 µM (inactive) | Kd [11]: > 30 µM (inactive) | Kd [3]: > 30 µM (inactive) | Kd [4]: > 30 µM (inactive) | Kd [5]: > 30 µM (inactive) | Kd (Deoxycytidine kinase): > 30 µM (inactive) | Kd [6]: > 30 µM (inactive) | Kd (Ephrin type-A receptor 2): > 30 µM (inactive) | Kd [7]: > 30 µM (inactive) | Kd [8]: > 30 µM (inactive) | Kd [9]: > 30 µM (inactive) | Kd [10]: > 30 µM (inactive) | Kd (DNA topoisomerase 2-beta): > 30 µM (inactive)

Cc1c(F)cc(C(=O)NC2CC2)cc1-c1ccc(C(=O)NCC(C)(C)C)cn1 [LOSMAPIMOD]
Kd [1]: > 30 µM (inactive) | Kd [2]: > 30 µM (inactive) | Kd [11]: > 30 µM (inactive) | Kd [3]: > 30 µM (inactive) | Kd [4]: > 30 µM (inactive) | Kd [5]: > 30 µM (inactive) | Kd (Deoxycytidine kinase): > 30 µM (inactive) | Kd [6]: > 30 µM (inactive) | Kd (Ephrin type-A receptor 2): > 30 µM (inactive) | Kd [7]: > 30 µM (inactive) | Kd [8]: > 30 µM (inactive) | Kd [10]: > 30 µM (inactive) | Kd (DNA topoisomerase 2-beta): > 30 µM (inactive)

Nc1nc(N)c2nc(-c3cccc(O)c3)c(-c3cccc(O)c3)nc2n1 [TG100-115]
Kd [11]: > 30 µM (inactive) | Kd [3]: > 30 µM (inactive) | Kd (Deoxycytidine kinase): 0.012 µM (active) | Kd [6]: > 30 µM (inactive) | Kd [8]: > 30 µM (inactive) | Kd (DNA topoisomerase 2-beta): > 30 µM (inactive)
